This note sets out measurements from EPA's ToxRefDB 2.

By LOAEL is commonly meant the lowest tested level that showed an adverse finding. In general, NOAEL refers to the highest tested level that showed no adverse finding.

Data set [1] relates to rat. Particulars: Subchronic oral toxicity in rodents, wistar, Feed, dose end: 13 week, group: systemic.
Data set [2] concerns mouse. The conditions noted are these: Subchronic oral toxicity in rodents, other, Feed, dose end: 13 week, group: systemic.
In data set [3] the test system is rat. Particulars: Combined chronic toxicity/carcinogenicity, wistar, Oral, Feed, dose end: 104 week, group: systemic.
Data set [4] concerns rat. The conditions noted are these: Combined chronic toxicity/carcinogenicity, sprague dawley, Oral, Feed, dose end: 25 month, group: systemic.
The test system of data set [5] is rat. The conditions noted are these: Prenatal developmental toxicity study, other, Oral, Gavage/Intubation, dose end: 15 GD.
The subject of data set [6] is rat. Particulars: Subchronic oral toxicity in rodents, wistar, Feed, dose end: 6 week, group: systemic.
In data set [7] the test system is mouse. The conditions noted are these: Carcinogenicity, cd1, Oral, [Not Specified], dose end: 99 week, group: systemic.
The subject of data set [8] is rat. The conditions noted are these: Subchronic oral toxicity in rodents, sprague dawley, Feed, dose end: 13 week, group: systemic.
Data set [9] has as its system rat. The conditions noted are these: Subchronic oral toxicity in rodents, other, Feed, dose end: 13 week, group: systemic.
For data set [10], the system named is rat. Particulars: Combined chronic toxicity/carcinogenicity, sprague dawley, Oral, Feed, dose end: 2 year, group: systemic.
Data set [11] concerns rat. The conditions noted are these: Multigenerational reproductive toxicity study, Sprague Dawley, Oral, Feed, dose end: 2 generation.
Data set [12] concerns dog. The conditions noted are these: Combined chronic toxicity/carcinogenicity, beagle, Oral, Feed, dose end: 24 month, group: systemic.
Data set [13] concerns rat. Particulars: Combined chronic toxicity/carcinogenicity, sprague dawley, Oral, Feed, dose end: 2 year, group: systemic. The source holds these as a separate data set.
Data set [14] deals with rabbit. Particulars: Prenatal developmental toxicity study, new zealand white, Oral, Gavage/Intubation, dose end: 19 GD.
The test system of data set [15] is rabbit. Particulars: Prenatal developmental toxicity study, new zealand white, Oral, Gavage/Intubation, dose end: 19 GD. This is another data set of the same source.
Data set [16] has as its system mouse. The conditions noted are these: Combined chronic toxicity/carcinogenicity, b6c3f1, Oral, Feed, dose end: 2 year, group: systemic.
Data set [17] has as its system rat. The conditions noted are these: Multigenerational reproductive toxicity study, sprague dawley, Oral, [Not Specified], dose end: 2 generation.
Where [18] appears, read: systemic / in life observation / body weight / body weight gain.
Setting [19] is: systemic / in life observation / body weight / body weight gain + systemic / clinical chemistry / cholesterol / cholesterol.
The mark [20] stands for this setting: systemic / clinical chemistry / urea nitrogen / urea nitrogen.
[21] abbreviates: systemic / clinical chemistry / urea nitrogen / urea nitrogen + systemic / clinical chemistry / alanine aminotransferase (alt/sgpt) / ….
Setting [22] is: systemic / hematology / erythrocyte (rbc) count differential / erythrocyte (rbc) + systemic / hematology / hematocrit (hct) / hematocrit (….
[23] abbreviates: systemic / clinical chemistry / alanine aminotransferase (alt/sgpt) / alanine aminotransferase (alt/sgpt) + systemic / clinical chemistry / ….
Setting [24] is: systemic / pathology microscopic / liver / hypertrophy.
Setting [25] is: group: developmental, developmental / developmental malformation / eye / anophthalmia + developmental / developmental malformation / eye / microphthalmia.
Where [26] appears, read: group: maternal, systemic / in life observation / body weight / body weight gain.
[27] abbreviates: systemic / in life observation / body weight / body weight gain + systemic / clinical chemistry / protein / protein + systemic / clinical ….
Setting [28] is: systemic / in life observation / body weight / body weight gain + systemic / in life observation / mortality / mortality + systemic / organ ….
The mark [29] stands for this setting: systemic / clinical chemistry / albumin / albumin + systemic / clinical chemistry / protein / protein.
The mark [30] stands for this setting: systemic / clinical chemistry / cholesterol / cholesterol + systemic / in life observation / body weight / body weight + systemic / in life ….
Setting [31] is: group: offspring, systemic / in life observation / body weight / offspring (pup) weight + developmental / offspring survival late / [other] / [other] + ….
Setting [32] is: group: parental, systemic / in life observation / body weight / body weight + systemic / organ weight / adrenal gland / absolute.
The mark [33] stands for this setting: systemic / pathology microscopic / kidney / cellular alteration + systemic / pathology microscopic / kidney / pigmentation.
The mark [34] stands for this setting: systemic / pathology microscopic / kidney / cellular alteration + systemic / pathology microscopic / kidney / pigmentation + systemic / ….
[35] abbreviates: systemic / pathology microscopic / liver / hyperplasia.
[36] abbreviates: systemic / pathology microscopic / liver / hyperplasia + systemic / in life observation / body weight / body weight + systemic / pathology ….
[37] abbreviates: group: developmental, developmental / developmental malformation / brain / hydrocephaly.
Setting [38] is: group: maternal, reproductive / reproductive performance / postimplantation loss / postimplantation loss.
[39] abbreviates: group: maternal, reproductive / reproductive performance / postimplantation loss / postimplantation loss + reproductive / reproductive performance / aborted….
[40] abbreviates: group: developmental, developmental / developmental malformation / brain / dilated cerebral ventricle + developmental / developmental malformation / brain / ….
The mark [41] stands for this setting: group: maternal, systemic / in life observation / body weight / body weight + systemic / in life observation / body weight / body weight gain + reproductive….
The mark [42] stands for this setting: systemic / in life observation / mortality / mortality + systemic / in life observation / body weight / body weight.
The mark [43] stands for this setting: group: offspring, developmental / offspring survival late / viability index / viability index + systemic / in life observation / body weight / offspring (pup….
Where [44] appears, read: group: parental, systemic / in life observation / body weight / body weight + systemic / in life observation / body weight / body weight gain + systemic / ….

As for `C[N+](C)(C)CCO.O=c1ccc([O-])n[nH]1`, the LOAEL turned out to be 4760 mg/kg/day in data set [1] (setting [18]), 5620 mg/kg/day in [2] (setting [20]) and 1960 mg/kg/day in [3] (systemic / in life observation / body weight / body weight + systemic / in life observation / body weight / body weight gain). Further, the LEL in data set [1] (setting [19]) was 4760 mg/kg/day; in data set [2] (setting [20]) it was 5620 mg/kg/day; in data set [3] (setting [22]) it was 18.1 mg/kg/day. Also, the NEL in [1] (setting [19]) was 1060 mg/kg/day; in data set [2] (setting [21]), 1100 mg/kg/day; in data set [3] (setting [22]), < 18.1 mg/kg/day. Besides, the NOAEL in [1] (setting [19]) came to 1060 mg/kg/day; in data set [2] (setting [21]), 1100 mg/kg/day; in data set [3] (systemic / in life observation / body weight / body weight + systemic / in life observation / body weight / body weight gain + systemic / …) it was 183 mg/kg/day.
`CCCN(CCC)c1c([N+](=O)[O-])cc(C(F)(F)F)c(N)c1[N+](=O)[O-]` [Prodiamine]: the LOAEL in data set [4] (setting [23]) was determined as 37 mg/kg/day; in data set [5] (setting [25]), 100 mg/kg/day; in [5] (setting [26]) it was 1000 mg/kg/day; in [6] (setting [18]), 681 mg/kg/day; in data set [7] (setting [28]) it was 750 mg/kg/day; in data set [8] (setting [30]) it was 269 mg/kg/day. Also, the NOAEL in [4] (setting [23]) is 9.1 mg/kg/day; in [5] (setting [25]) it was < 100 mg/kg/day; in data set [5] (setting [26]), 300 mg/kg/day; in [6] (setting [27]) it was 63 mg/kg/day; in [7] (setting [28]) it was 75 mg/kg/day; in [8] (setting [30]) it was 80.1 mg/kg/day. The LEL in data set [4] (setting [24]) worked out at 1.8 mg/kg/day; in data set [5] (setting [25]), 100 mg/kg/day; in data set [5] (setting [26]), 1000 mg/kg/day; in data set [6] (systemic / clinical chemistry / protein / protein) it was 63 mg/kg/day; in data set [7] (systemic / in life observation / body weight / body weight gain + systemic / organ weight / kidney / nos + systemic / in life observation / …), 75 mg/kg/day; in data set [8] (setting [29]) it was 26.7 mg/kg/day. Also, the NEL was < 1.8 mg/kg/day in data set [4] (setting [24]); < 100 mg/kg/day in data set [5] (setting [25]); 300 mg/kg/day in [5] (setting [26]); 16.8 mg/kg/day in data set [6] (setting [27]); 7.5 mg/kg/day in data set [7] (setting [28]); < 26.7 mg/kg/day in data set [8] (setting [29]).
For the compound `CNC(=O)ON=C(C)SC` [Methomyl], the NEL in [9] (setting [18]) is 2.5 mg/kg/day; in data set [10] (setting [22]), 5 mg/kg/day; in data set [11] (setting [31]) it was < 6.9 mg/kg/day; in data set [11] (setting [32]), < 6.9 mg/kg/day; in data set [12] (setting [34]), 2.5 mg/kg/day. For the same compound, the NOAEL worked out at 2.5 mg/kg/day in data set [9] (setting [18]); 5 mg/kg/day in data set [10] (setting [18]); 6.9 mg/kg/day in data set [11] (group: offspring, systemic / in life observation / body weight / offspring (pup) weight + developmental / offspring survival late / lactation index / …); 4.6 mg/kg/day in [11] (group: parental, systemic / in life observation / body weight / body weight + systemic / in life observation / food consumption / food consumption + systemic…); 2.5 mg/kg/day in [12] (setting [34]). Moreover, the LOAEL is 12.5 mg/kg/day in data set [9] (systemic / in life observation / body weight / body weight gain + systemic / pathology microscopic / bone marrow / hyperplasia); 20 mg/kg/day in [10] (setting [18]); 56.5 mg/kg/day in data set [11] (group: offspring, systemic / in life observation / body weight / offspring (pup) weight + developmental / offspring survival late / [other] / [other]); 36.9 mg/kg/day in [11] (group: parental, systemic / in life observation / body weight / body weight + systemic / in life observation / food consumption / food consumption); 10 mg/kg/day in data set [12] (setting [33]). Besides, the LEL in data set [9] (systemic / in life observation / body weight / body weight gain + systemic / pathology microscopic / bone marrow / hyperplasia + systemic / …) came to 12.5 mg/kg/day; in [10] (systemic / in life observation / body weight / body weight gain + systemic / hematology / erythrocyte (rbc) count differential / erythrocyte…), 20 mg/kg/day; in data set [11] (setting [31]) it was 6.9 mg/kg/day; in data set [11] (setting [32]), 6.9 mg/kg/day; in data set [12] (setting [33]), 10 mg/kg/day.
Consider `C1CC[CH]([Sn+]([CH]2CCCCC2)[CH]2CCCCC2)CC1.[OH-]` [Cyhexatin], for which the LOAEL was 1 mg/kg/day in data set [13] (setting [35]); > 3 mg/kg/day in [14] (setting [37]); 1 mg/kg/day in data set [14] (setting [38]); > 3 mg/kg/day in data set [15] (setting [40]); 3 mg/kg/day in data set [15] (group: maternal, systemic / in life observation / body weight / body weight + systemic / in life observation / body weight / body weight gain); 6 mg/kg/day in data set [16] (systemic / in life observation / mortality / mortality). Moreover, the LOAEL in data set [17] (setting [43]) and in [17] (setting [44]) was > 6 mg/kg/day throughout. In addition, the NOAEL is < 1 mg/kg/day in data set [13] (setting [35]); ≥ 3 mg/kg/day in [14] (setting [37]); 0.5 mg/kg/day in data set [14] (setting [39]); ≥ 3 mg/kg/day in data set [15] (setting [40]); 0.75 mg/kg/day in [15] (setting [41]); 3 mg/kg/day in [16] (setting [42]). The NOAEL in data set [17] (setting [43]) and in [17] (setting [44]) was ≥ 6 mg/kg/day in each case. In addition, the LEL in data set [13] (setting [36]) stood at 1 mg/kg/day; in [14] (setting [37]), 3 mg/kg/day; in data set [14] (setting [38]), 1 mg/kg/day; in data set [15] (setting [40]), 0.75 mg/kg/day; in data set [15] (setting [41]), 3 mg/kg/day; in [16] (setting [42]), 6 mg/kg/day. The LEL in [17] (setting [43]) stood at 6 mg/kg/day; in [17] (group: parental, systemic / in life observation / body weight / body weight + systemic / in life observation / body weight / body weight gain), 0.5 mg/kg/day. The NEL is < 1 mg/kg/day in data set [13] (setting [36]); 1 mg/kg/day in [14] (setting [37]); 0.5 mg/kg/day in [14] (setting [39]); < 0.75 mg/kg/day in data set [15] (setting [40]); 0.75 mg/kg/day in data set [15] (setting [41]); 3 mg/kg/day in data set [16] (setting [42]). Besides, the NEL in data set [17] (setting [43]) was 0.5 mg/kg/day; in data set [17] (setting [44]), 0.1 mg/kg/day.
